How the values were obtained:
VHL [1] = target: T1, VHL (Homo sapiens, UniProt P40337); experiment: VHL HEK-293 BRET Assay (VHL NanoBRET Target Engagement Assay); format: cell-based; details: for IC50: HEK 293 RT VHL-NanoLuc stable cells, 1 uM tracer, 2 hours, geometric mean where more than one measurement, read-out: VHL binding in cells (HEK293 nanoBRET); for Ratio cell permeability shift: ratio not defined
T1 construct: expressed in transfected cells
Protocol: (§1) The VHL NanoBRET™ Target Engagement Assay analyzes the apparent affinity of test compounds for VHL in cells by competitive displacement of a VHL NanoBRET™ tracer reversibly bound to a NanoLuc® VHL fusion protein stably expressed in the cells.
(§2) 50 nL of control compound (10 mM; parental unlabeled VHL antagonist; see structure below) and 50 nL of DMSO (negative control) were dispensed into the appropriate control wells. DMSO was backfilled to a final volume of 50 nL as required. […] Max Signal control wells consisted of DMSO only treated wells. Minimum Signal control wells contained of 10 uM parental unlabeled VHL antagonist (control compound—see structure below). […] Background Signal control wells were prepared without tracer for background correction steps.
(§3) The raw BRET ratio values were calculated by dividing the acceptor emission value (610 nm) by the donor emission value (460 nm) for each sample. To correct for background, the BRET ratio in the absence of tracer (average of no-tracer control samples) was subtracted from the BRET ratio of each sample. Raw BRET units were converted to milliBRET units (mBU) by multiplying each raw BRET value by 1,000. The normalized NanoBRET™ signal was calculated relative to the Max Signal control wells (DMSO treated control wells) and the Minimum Signal control wells. Percentage inhibition was calculated relative to the Minimum Signal control and Maximum Signal control wells. IC50 values were derived by four parameter curve fitting using the Robust method.

VHL [2] = target: T1, VHL; experiment: VHL nanoBRET (+ Digitonin); format: cell-based
Protocol: as §1, §2, §3

T1 sequence (P40337 whole entry): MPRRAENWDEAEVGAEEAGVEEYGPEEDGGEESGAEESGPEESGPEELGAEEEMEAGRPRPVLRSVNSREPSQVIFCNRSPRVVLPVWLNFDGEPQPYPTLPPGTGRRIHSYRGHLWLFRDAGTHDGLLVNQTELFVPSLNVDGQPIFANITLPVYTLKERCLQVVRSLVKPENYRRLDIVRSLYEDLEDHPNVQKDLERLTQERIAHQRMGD

Compound	IC50 (VHL [1])	Ratio cell permeability shift (VHL [1])	EC50 (VHL [2])
COC(=O)c1nnn([C@@H](C(=O)N2C[C@H](O)C[C@H]2C(=O)N[C@H](Cc2ccc(-c3ccccc3)cc2)C(N)=O)C(C)C)c1C (single isomer, unassigned) [Isomer A from Example S33]	62500 nM	1.43	43700 nM
CC(C)[C@@H](C(=O)N1C[C@H](O)C[C@H]1C(=O)N[C@H](Cc1ccc(-c2ccccc2)cc1)C(N)=O)n1nnc2ccccc21 (single isomer, unassigned) [Isomer A from Example S36]	300 nM	0.77	390 nM
COC(=O)c1nnn([C@H](C(=O)N2C[C@H](O)C[C@H]2C(=O)N[C@H](Cc2ccc(-c3ccccc3)cc2)C(N)=O)C(C)C)c1C (single isomer, unassigned) [Isomer B from Example S33]	1620 nM	1.64	990 nM
CC(C)[C@H](C(=O)N1C[C@H](O)C[C@H]1C(=O)N[C@H](Cc1ccc(-c2ccccc2)cc1)C(N)=O)n1nnc2ccccc21 (single isomer, unassigned) [Isomer B from Example S36]	68500 nM	1.01	68000 nM
C#CC1(c2cn([C@H](C(=O)N3C[C@H](O)C[C@H]3C(=O)NCc3ccc(-c4scnc4C)cc3)C(C)(C)C)nn2)CC1 [Compound 30, (2S,4R)-1-((S)-2-(4-(1-ethynylcyclopropyl)-1H-1,2,3-triazol-1-yl)-3,3-dimethylbutanoyl)-4-hydroxy-N-(4-(4-methylthiazol-5-yl)benzyl)pyrrolidine-2-carboxamide]	20 nM	1.15	20 nM
Cc1ncsc1-c1ccc(CNC(=O)[C@@H]2C[C@@H](O)CN2C(=O)[C@@H](n2cc(C3(c4cn([C@H](C(=O)N5C[C@H](O)C[C@H]5C(=O)NCc5ccc(-c6scnc6C)cc5)C(C)(C)C)nn4)CC3)nn2)C(C)(C)C)cc1 [Compound 31, (2S,2'S,4R,4′R)-1,1′-((2S,2'S)-2,2′-(cyclopropane-1,1-diylbis(JH-1,2,3-triazole-4,1-diyl))bis(3,3-dimethylbutanoyl))bis(4-hydroxy-N-(4-(4-methylthiazol-5-yl)benzyl)pyrrolidine-2-carboxamide)]	310 nM	19.75	20 nM
NC(=O)[C@@H](Cc1ccc(-c2ccccc2)cc1)NC(=O)[C@@H]1C[C@@H](O)CN1C(=O)[C@H](C1CCC1)n1cc(C2CC2)nn1 [Example S4, (2S,4R)—N—((R)-3-([1,1′-biphenyl]-4-yl)-1-amino-1-oxopropan-2-yl)-1-((S)-2-cyclobutyl-2-(4-cyclopropyl-1H-1,2,3-triazol-1-yl)acetyl)-4-hydroxypyrrolidine-2-carboxamide]	190 nM	0.96	200 nM
CC[C@H](C)[C@@H](C(=O)N1C[C@H](O)C[C@H]1C(=O)N[C@H](Cc1ccc(-c2ccccc2)cc1)C(N)=O)n1cc(C2CC2)nn1 [Example S5, (2S,4R)—N—((R)-3-([1,1′-biphenyl]-4-yl)-1-amino-1-oxopropan-2-yl)-1-((2S,3S)-2-(4-cyclopropyl-1H-1,2,3-triazol-1-yl)-3-methylpentanoyl)-4-hydroxypyrrolidine-2-carboxamide]	130 nM	0.77	170 nM
CCC(C)(C)[C@@H](C(=O)N1C[C@H](O)C[C@H]1C(=O)N[C@H](Cc1ccc(-c2ccccc2)cc1)C(N)=O)n1cc(C2CC2)nn1 [Example S6, (2S,4R)—N—((R)-3-([1,1′-biphenyl]-4-yl)-1-amino-1-oxopropan-2-yl)-1-((S)-2-(4-cyclopropyl-1H-1,2,3-triazol-1-yl)-3,3-dimethylpentanoyl)-4-hydroxypyrrolidine-2-carboxamide]	100 nM	0.76	140 nM
C=CC(C)(C)[C@@H](C(=O)N1C[C@H](O)C[C@H]1C(=O)N[C@H](Cc1ccc(-c2ccccc2)cc1)C(N)=O)n1cc(C2CC2)nn1 [Example S7, (2S,4R)—N—((R)-3-([1,1′-biphenyl]-4-yl)-1-amino-1-oxopropan-2-yl)-1-((S)-2-(4-cyclopropyl-1H-1,2,3-triazol-1-yl)-3,3-dimethylpent-4-enoyl)-4-hydroxypyrrolidine-2-carboxamide]	110 nM	0.68	160 nM
NC(=O)[C@@H](Cc1ccc(-c2ccccc2)cc1)NC(=O)[C@@H]1C[C@@H](O)CN1C(=O)[C@@H](n1cc(C2CC2)nn1)C12CC3CC(CC(C3)C1)C2 [Example S8, (2S,4R)—N—((R)-3-([1,1′-biphenyl]-4-yl)-1-amino-1-oxopropan-2-yl)-1-((2S)-2-(adamantan-1-yl)-2-(4-cyclopropyl-1H-1,2,3-triazol-1-yl)acetyl)-4-hydroxypyrrolidine-2-carboxamide]	120 nM	0.73	160 nM
CC(=O)NCC1(c2cn([C@@H](C(=O)N3C[C@H](O)C[C@H]3C(=O)N[C@H](Cc3ccc(-c4ccccc4)cc3)C(N)=O)C(C)(C)C)nn2)CC1 [Example S12, (2S,4R)—N—((R)-3-([1,1′-biphenyl]-4-yl)-1-amino-1-oxopropan-2-yl)-1-((R)-2-(4-(1-(acetamidomethyl)cyclopropyl)-1H-1,2,3-triazol-1-yl)-3,3-dimethylbutanoyl)-4-hydroxypyrrolidine-2-carboxamide]	> 100000 nM	–	24500 nM
CC(=O)NCC1(c2cn([C@H](C(=O)N3C[C@H](O)C[C@H]3C(=O)N[C@H](Cc3ccc(-c4ccccc4)cc3)C(N)=O)C(C)(C)C)nn2)CC1 [Example S13, (2S,4R)—N—((R)-3-([1,1′-biphenyl]-4-yl)-1-amino-1-oxopropan-2-yl)-1-((S)-2-(4-(1-(acetamidomethyl)cyclopropyl)-1H-1,2,3-triazol-1-yl)-3,3-dimethylbutanoyl)-4-hydroxypyrrolidine-2-carboxamide]	2270 nM	10.22	220 nM
CC(C)(C)[C@@H](C(=O)N1C[C@H](O)C[C@H]1C(=O)N[C@H](Cc1ccc(-c2ccccc2)cc1)C(N)=O)n1cc(C(=O)O)nn1 [Example S15, 1-((S)-1-((2S,4R)-2-(((R)-3-([1,1′-biphenyl]-4-yl)-1-amino-1-oxopropan-2-yl)carbamoyl)-4-hydroxypyrrolidin-1-yl)-3,3-dimethyl-1-oxobutan-2-yl)-1H-1,2,3-triazole-4-carboxylic acid]	69800 nM	115.18	610 nM
CC(C)(C)[C@@H](C(=O)N1C[C@H](O)C[C@H]1C(=O)N[C@H](Cc1ccc(-c2ccccc2)cc1)C(N)=O)n1cc(C(N)=O)nn1 [Example S16, 1-((S)-1-((2S,4R)-2-(((R)-3-([1,1′-biphenyl]-4-yl)-1-amino-1-oxopropan-2-yl)carbamoyl)-4-hydroxypyrrolidin-1-yl)-3,3-dimethyl-1-oxobutan-2-yl)-1H-1,2,3-triazole-4-carboxamide]	3310 nM	8.30	400 nM
Cc1ncsc1-c1ccc([C@H](C)NC(=O)[C@@H]2C[C@@H](O)CN2C(=O)[C@@H](n2cc(C3CC3)nn2)C(C)(C)C)cc1 [Example S18, (2S,4R)-1-((S)-2-(4-cyclopropyl-1H-1,2,3-triazol-1-yl)-3,3-dimethylbutanoyl)-4-hydroxy-N—((S)-1-(4-(4-methylthiazol-5-yl)phenyl)ethyl)pyrrolidine-2-carboxamide]	10 nM	0.85	10 nM
Cc1ncsc1-c1ccc(CNC(=O)[C@@H]2C[C@@H](O)CN2C(=O)[C@H](C2CCCCC2)n2cc(C3CC3)nn2)cc1 [Example S25, (2S,4R)-1-((S)-2-cyclohexyl-2-(4-cyclopropyl-1H-1,2,3-triazol-1-yl)acetyl)-4-hydroxy-N-(4-(4-methylthiazol-5-yl)benzyl)pyrrolidine-2-carboxamide]	–	0.67	–
Cc1c(C(=O)O)nnn1[C@@H](C(=O)N1C[C@H](O)C[C@H]1C(=O)N[C@H](Cc1ccc(-c2ccccc2)cc1)C(N)=O)C(C)C [Example S34, 1-((R)-1-((2S,4R)-2-(((R)-3-([1,1′-biphenyl]-4-yl)-1-amino-1-oxopropan-2-yl)carbamoyl)-4-hydroxypyrrolidin-1-yl)-3-methyl-1-oxobutan-2-yl)-5-methyl-1H-1,2,3-triazole-4-carboxylic acid]	–	–	> 100000 nM
Cc1c(C(=O)O)nnn1[C@H](C(=O)N1C[C@H](O)C[C@H]1C(=O)N[C@H](Cc1ccc(-c2ccccc2)cc1)C(N)=O)C(C)C [Example S35, 1-((S)-1-((2S,4R)-2-(((R)-3-([1,1′-biphenyl]-4-yl)-1-amino-1-oxopropan-2-yl)carbamoyl)-4-hydroxypyrrolidin-1-yl)-3-methyl-1-oxobutan-2-yl)-5-methyl-1H-1,2,3-triazole-4-carboxylic acid]	–	–	13000 nM

From patent US20230391766A1, “1-(2-(4-CYCLOPROPYL-1H-1,2,3-TRIAZOL-1-YL)ACETYL)-4-HYDROXY-N-(BENZYL)PYRROLIDIN E-2-CARBOXAMIDE DERIVATIVES AS VHL INHIBITORS FOR THE TREATMENT OF ANEMIA AND CANCER” (Genentech, Inc., priority 2020, published 2023)
